# Assay results reported in patent US7030213B2, “Conformationally stabilized cell adhesion peptides” (La Jolla Cancer Research Institute, priority 1987, dated 2006).
# Primed or numbered codes have the meaning given here. Where no end group is shown, it is not given here. [ ]: non-standard residue; d: D form. Pen′ = Penicillamine
# Tests used:
# [1] = system: attachment of normal rat kidney cells to fibronectin; test: Cell adhesion assay: inhibition of attachment of normal rat kidney cells to fibronectin; assay type: cell-based; details: normal rat kidney cells on fibronectin-coated wells; peptide 0 to 10.0 mM; 1 hour at 37° C.; FIG. 2
# Procedure: (§1) Fibronectin and vitronectin were purified from human plasma according to the methods of Ruoslahti et al., (1982) Meth. Enz. 82:803; and Hayman et al., (1983) PNAS 80:4003, respectively, both of which are incorporated herein by reference. The adhesion of normal rat kidney cells to fibronectin and vitronectin was assayed as described, in Ruoslahti et al., Meth. Enz. supra. Briefly, 0.1 ml solution of fibronectin or vitronectin at a concentration of 12 μg/ml in 0.1M PBS was placed in each well of 96-well plastic microtiter plates and left for 2 hours at room temperature. The unattached protein was removed by washing three times with PBS.
# (§2) One day before the assay, a confluent culture of normal rat kidney cells was split 1:2 using standard tissue culture trypsin. The cells were washed three times with PBS, pH 7.2. […] Before the last centrifugation, a sample was taken and cell numbers and viability by trypan blue exclusion are determined. […]
# (§3) The unattached cells were removed simply by removing the medium and washing the wells. […] The cells were then fixed with 3% paraformaldehyde in PBS and stained with 1% toluidine blue, paraformaldehyde in PBS, and attached cells counted. Their number was determined using a cell counter that is capable of counting cells attached to a surface (Dynatech Laboratories, Alexandria, Va.). […]
# [2] = system: attachment of normal rat kidney cells to vitronectin; test: Cell adhesion assay: inhibition of attachment of normal rat kidney cells to vitronectin; assay type: cell-based; details: normal rat kidney cells on vitronectin-coated wells, peptide 0 to 10.0 mM, 1 hour at 37° C., FIG. 2
# Procedure: as §1, §2, §3
Substance,inhibition of attachment to fibronectin [1],inhibition of attachment to vitronectin [2],"molar concentration inhibiting attachment to vitronectin, lower than the linear peptide ([2]; relative to linear peptide)"
"Gly-Pen-Gly-Arg-Gly-Asp-Ser-Pro-Cys (G[Pen′]GRGDSPC; cysteine pairing not given here) [linear peptide, non-cyclized, or linear, peptide used as comparator]",inhibited attachment of cells to both substrates at relatively similar concentrations,inhibited attachment of cells to both substrates at relatively similar concentrations,
Gly-Pen-Gly-Arg-Gly-Asp-Ser-Pro-Cys-Ala [cyclic peptide],ineffective,,10 fold
